# Test system: HCV genotype 1b replicon
# Assay: HCV replicon assay, genotype 1b
# Type: cell-based, hepatitis C virus
# Details: Hepatitis C virus; genotype 1b replicon cells, 24 to 72 hours incubation, luciferase activity
# Procedure: The HCV replicons and NS5A inhibitory activity of the present compounds may be tested using assays known in the art. HCV inhibitors, such as those described in the Examples herein have activities in genotype 1b, 2a and 1a replicon assays of from about 1 pM to about 1 μM. The assay is performed by incubating a replicon harboring cell-line in the presence of inhibitor for a set period of time and measuring the effect of the inhibitor on HCV replicon replication either directly by quantifying replicon RNA level, or indirectly by measuring enzymatic activity of a co-encoded reporter enzyme such as luciferase or β-lactamase. By performing a series of such measurements at different inhibitor concentrations, the effective inhibitory concentration of the inhibitor (EC50 or EC90) is determined. See Jan M. Vrolijk et al., A replicons-based bioassay for the measurement of interferons in patients with chronic hepatitis C, 110 J. VIROLOGICAL METHODS 201 (2003). Such assays may also be run in an automated format for high through-put screening. See Paul Zuck et al., A cell-based β-lactamase reporter gene assay for the identification of inhibitors of hepatitis C virus replication, 334 ANALYTICAL BIOCHEMISTRY 344 (2004).
# Measurement of inhibition by compounds was performed using the HCV replicon system. Several different replicons encoding different HCV genotypes or mutations were used. In addition, potency measurements were made using different formats of the replicon assay, including different ways of measurements and different plating formats. See Jan M. Vrolijk et al., A replicons-based bioassay for the measurement of interferons in patients with chronic hepatitis C, 110 J. VIROLOGICAL METHODS 201 (2003); Steven S. Carroll et al., Inhibition of Hepatitis C Virus RNA Replication by 2′-Modified Nucleoside Analogs, 278(14) J. BIOLOGICAL CHEMISTRY 11979 (2003). However, the underlying principles are common to all of these determinations, and are outlined below.
# Stable neomycin phosphotransferase encoding replicon-harboring cell lines were used, so all cell lines were maintained under G418 selection prior to the assay. In some cases, the cell lines encoded a luciferase:Neor fusion and could be assayed either directly by determination of RNA copy number, or indirectly through measurement of the luciferase activity.
# To initiate an assay, replicon cells were plated in the presence of a dilution series of test compound in the absence of G418. Typically, the assays were performed in a 96-well plate format for manual operation, or a 384-well plate in an automated assay. Replicon cells and compound were incubated for 24 to 72 hours. At the end of the assay, cells are washed free of media and compound and then lysed. Luciferase activity was measured using a conventional luciferase assay. EC50 determinations were calculated as a percent of a DMSO control by fitting the data to a four parameter fit function.
# The activity table below provides representative data illustrating observed activity against genotype 1b.
row,Compound,EC50 [nM]
1,"CC(C)(C)OC(=O)N[C@@H](C(=O)N1CCC[C@H]1C(=O)Nc1ccc2[nH]c(-c3ccc(-c4cnc([C@@H]5CCCN5C(=O)OCc5ccccc5)[nH]4)cc3)cc2c1)c1ccccc1 [Example 100, benzyl (2S)-2-[5-(4-{5-[(1-{(2R)-2-[(tert-butoxycarbonyl)amino]-2-phenylacetyl}-L-prolyl)amino]-1H-indol-2-yl}phenyl)-1H-imidazol-2-yl]pyrrolidine-1-carboxylate]",0.031
2,"CN(C)[C@@H](C(=O)N1CCC[C@H]1C(=O)Nc1ccc2[nH]c(-c3ccc(-c4cnc([C@@H]5CCCN5C(=O)[C@@H](c5ccccc5)N(C)C)[nH]4)cc3)cc2c1)c1ccccc1 [Example 101, 1-[(2R)-2-(dimethylamino)-2-phenylacetyl]-N-{2-[4-(2-{(2S)-1-[(2R)-2-(dimethylamino)-2-phenylacetyl]pyrrolidin-2-yl}-1H-imidazol-5-yl)phenyl]-1H-indol-5-yl}-L-prolinamide]",0.5
3,"CC(C)(C)OC(=O)N[C@@H](C(=O)N1CCC[C@H]1C(=O)Nc1ccc2[nH]c(-c3ccc(-c4c[nH]cn4)cc3)cc2c1)c1ccccc1 [Example 102, tert-butyl {(1R)-2-[(2S)-2-({2-[4-(1H-imidazol-4-yl)phenyl]-1H-indol-5-yl}carbamoyl)pyrrolidin-1-yl]-2-oxo-1-phenylethyl}carbamate]",8.3
4,"CN(C)[C@H](C(=O)N1CCC[C@H]1C(=O)Nc1ccc2[nH]c(-c3ccc(-c4cnc([C@@H]5CCCN5C(=O)[C@H](c5ccccc5)N(C)C)[nH]4)cc3)cc2c1)c1ccccc1 [Example 103, 1-[(2S)-2-(dimethylamino)-2-phenylacetyl]-N-{2-[4-(2-{(2S)-1-[(2S)-2-(dimethylamino)-2-phenylacetyl]pyrrolidin-2-yl}-1H-imidazol-5-yl)phenyl]-1H-indol-5-yl}-L-prolinamide]",5.7
5,"CC(=O)N1CCC[C@H]1c1ncc(-c2ccc(-c3cc4cc(NC(=O)[C@@H]5CCCN5C(=O)[C@H](NC(=O)OC(C)(C)C)c5ccccc5)ccc4[nH]3)cc2)[nH]1 [Example 105, tert-butyl{(1R)-2-[(2S)-2-{[2-(4-{2-[(2S)-1-acetylpyrrolidin-2-yl]-1H-imidazol-5-yl}phenyl)-1H-indol-5-yl]carbamoyl}pyrrolidin-1-yl]-2-oxo-1-phenylethyl}carbamate]",0.08
6,"CN(C)[C@@H](C(=O)N1CCC[C@H]1c1ncc(-c2ccc(-c3cc4cc(NC(=O)[C@@H]5CCCN5C(=O)[C@H](NC(=O)OC(C)(C)C)c5ccccc5)ccc4[nH]3)cc2)[nH]1)c1ccccc1 [Example 107, tert-butyl {(1R)-2-[(2S)-2-({2-[4-(2-{(2S)-1-[(2R)-2-(dimethylamino)-2-phenylacetyl]pyrrolidin-2-yl}-1H-imidazol-5-yl)phenyl]-1H-indol-5-yl}carbamoyl)pyrrolidin-1-yl]-2-oxo-1-phenylethyl}carbamate]",0.04
7,"COC(=O)N[C@H](C(=O)N1CCC[C@H]1C(=O)Nc1ccc2[nH]c(-c3ccc(-c4cnc([C@@H]5CCCN5C(=O)[C@@H](NC(=O)OC)C(C)C)[nH]4)cc3)cc2c1)C(C)C [Example 116, N-(methoxycarbonyl)-L-valyl-N-{2-[4-(2-{(2S)-1-[N-(methoxycarbonyl)-L-valyl]pyrrolidin-2-yl}-1H-imidazol-5-yl)phenyl]-1H-indol-5-yl}-L-prolinamide]",0.065
8,"CC(C)OC(=O)N[C@@H](C(=O)N1CCC[C@H]1C(=O)Nc1ccc2[nH]c(-c3ccc(-c4ncc([C@@H]5CCCN5C(=O)[C@H](NC(=O)OC(C)C)c5ccccc5)[nH]4)cc3)cc2c1)c1ccccc1 [Example 119, propan-2-yl [(1R)-2-oxo-1-phenyl-2-{(2S)-2-[2-(4-{5-[({(2S)-1-[(2R)-2-phenyl-2-{[(propan-2-yloxy)carbonyl]amino}acetyl]pyrrolidin-2-yl}carbonyl)amino]-1H-indol-2-yl}phenyl)-1H-imidazol-5-yl]pyrrolidin-1-yl}ethyl]carbamate]",0.013
9,"CC(C)(C)OC(=O)N[C@@H](C(=O)N1CCC[C@H]1C(=O)Nc1ccc2[nH]c(-c3ccc4[nH]c([C@@H]5CCCN5C(=O)[C@H](NC(=O)OC(C)(C)C)c5ccccc5)nc4c3)cc2c1)c1ccccc1 [Example 125, tert-butyl [(1R)-2-{(2S)-2-[(2-{2-[(2S)-1-{(2R)-2-[(tert-butoxycarbonyl)amino]-2-phenylacetyl}pyrrolidin-2-yl]-1H-benzimidazol-5-yl}-1H-indol-5-yl)carbamoyl]pyrrolidin-1-yl}-2-oxo-1-phenylethyl]carbamate]",0.016
10,"O=C(Nc1ccc(-c2[nH]c3ccc(NC(=O)[C@@H]4CCCN4C(=O)Cc4ccccc4)cc3c2F)cc1)[C@@H]1CCCN1C(=O)Cc1ccccc1 [Example 129, (2S)-N-{4-[3-fluoro-5-({[(2S)-1-(phenylacetyl)pyrrolidin-2-yl]carbonyl}amino)-1H-indol-2-yl]phenyl}-1-(phenylacetyl) pyrrolidine-2-carboxamide]",0.7
11,"CC(C)(C)OC(=O)N[C@H](C(=O)N1CCC[C@H]1C(=O)Nc1ccc(-c2[nH]c3ccc(NC(=O)[C@@H]4CCCN4C(=O)[C@@H](NC(=O)OC(C)(C)C)c4ccccc4)cc3c2F)cc1)c1ccccc1 [Example 130, tert-butyl {(1S)-2-[(2S)-2-({4-[5-({[(2S)-1-{(2S)-2-[(tert-butoxycarbonyl)amino]-2-phenylacetyl}pyrrolidin-2-yl]carbonyl}amino)-3-fluoro-1H-indol-2-yl]phenyl}carbamoyl)pyrrolidin-1-yl]-2-oxo-1-phenylethyl}carbamate]",0.05
12,"CC(=O)Nc1ccc(-c2[nH]c3ccc(NC(=O)[C@@H]4CCCN4C(=O)[C@@H](NC(=O)OC(C)(C)C)c4ccccc4)cc3c2Cl)cc1 [Example 131, tert-butyl {(1S)-2-[(2S)-2-({2-[4-(acetylamino)phenyl]-3-chloro-1H-indol-5-yl}carbamoyl)pyrrolidin-1-yl]-2-oxo-1-phenylethyl}carbamate]",17
13,"CC(=O)N1CCC[C@H]1C(=O)Nc1ccc(-c2[nH]c3ccc(NC(=O)[C@@H]4CCCN4C(=O)[C@H](NC(=O)OC(C)(C)C)c4ccccc4)cc3c2F)cc1 [Example 137, tert-butyl {(1R)-2-[(2S)-2-({2-[4-({[(2S)-1-acetylpyrrolidin-2-yl]carbonyl}amino)phenyl]-3-fluoro-1H-indol-5-yl}carbamoyl)pyrrolidin-1-yl]-2-oxo-1-phenylethyl}carbamate]",0.009
14,"CC(C)(C)OC(=O)N[C@@H](C(=O)N1CCC[C@H]1C(=O)Nc1ccc2[nH]c(-c3ccc(N4CCCC4=O)cc3)c(F)c2c1)c1ccccc1 [Example 138, tert-butyl {(1R)-2-[(2S)-2-({3-fluoro-2-[4-(2-oxopyrrolidin-1-yl)phenyl]-1H-indol-5-yl}carbamoyl)pyrrolidin-1-yl]-2-oxo-1-phenylethyl}carbamate]",8.5
15,"CC(C)OC(=O)N[C@@H](C(=O)N1CCC[C@H]1C(=O)Nc1ccc(-c2[nH]c3ccc(NC(=O)[C@@H]4CCCN4C(=O)OC(C)(C)C)cc3c2F)cc1)c1ccccc1 [Example 144, tert-butyl (2S)-2-[(3-fluoro-2-{4-[({(2S)-1-[(2R)-2-phenyl-2-{[(propan-2-yloxy)carbonyl]amino}acetyl]pyrrolidin-2-yl}carbonyl)amino]phenyl}-1H-indol-5-yl)carbamoyl] pyrrolidine-1-carboxylate]",0.036
